The target in this test is Coagulation factor XI (Homo sapiens, UniProt P03951). The test is described as follows: In Vitro Assay: The effectiveness of compounds of the present invention as inhibitors of the coagulation Factors XIa, VIIa, IXa, Xa, XIIa, plasma kallikrein or thrombin, can be determined using a relevant purified serine protease, respectively, and an appropriate synthetic substrate. The rate of hydrolysis of the chromogenic or fluorogenic substrate by the relevant serine protease was measured both in the absence and presence of compounds of the present invention. […] A decrease in the rate of absorbance or fluorescence change in the presence of inhibitor is indicative of enzyme inhibition. Factor XIa determinations were made in 50 mM HEPES buffer at pH 7.4.

The record followed here is ChEMBL document CHEMBL3638865, “Macrocycles as factor XIa inhibitors” (2014).

SMILES strings stand for the structures.

As usually defined, the Ki is a measure of affinity in units of concentration, obtained from inhibition or displacement.

Coagulation factor XI, sequence (P03951 19-387 limits assumed): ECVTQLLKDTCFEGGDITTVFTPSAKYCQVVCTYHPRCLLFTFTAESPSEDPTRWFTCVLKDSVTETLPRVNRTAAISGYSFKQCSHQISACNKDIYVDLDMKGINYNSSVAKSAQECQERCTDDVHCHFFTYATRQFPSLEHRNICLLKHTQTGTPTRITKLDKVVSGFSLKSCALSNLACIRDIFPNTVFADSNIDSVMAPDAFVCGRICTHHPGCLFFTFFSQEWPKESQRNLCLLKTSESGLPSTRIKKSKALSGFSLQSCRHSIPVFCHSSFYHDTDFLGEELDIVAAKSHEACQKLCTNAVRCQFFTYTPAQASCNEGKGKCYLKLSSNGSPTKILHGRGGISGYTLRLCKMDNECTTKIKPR
Coagulation factor XI, sequence (P03951 388-625 limits assumed): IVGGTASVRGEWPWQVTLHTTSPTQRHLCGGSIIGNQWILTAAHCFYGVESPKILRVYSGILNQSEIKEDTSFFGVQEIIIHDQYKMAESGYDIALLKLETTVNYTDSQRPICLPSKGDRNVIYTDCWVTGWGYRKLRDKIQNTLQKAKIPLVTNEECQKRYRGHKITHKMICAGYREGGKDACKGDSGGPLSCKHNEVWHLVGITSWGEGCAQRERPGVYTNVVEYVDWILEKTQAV

`COC(=O)Nc1ccc2c(c1)CNC(=O)c1ccc(cc1)C[C@H](NC(=O)/C=C/c1cc(Cl)ccc1-n1cnnn1)c1nc-2c(Cl)[nH]1`: the Ki is 8.12 µM.
